Reference: patent publication US11806359B2 (priority 2020, dated 2023)

How the values were obtained:
HCV H strain NS5B = settings: cited from earlier work
HIV-1 = settings: cited from earlier work
HEP C = settings: cited from earlier work
ADV-8 = settings: cited from earlier work
HSV-2 = settings: cited from earlier work
ADV-11 = settings: cited from earlier work
ENTV EV71 = settings: cited from earlier work
HSV-1 = settings: cited from earlier work
HEP B = settings: cited from earlier work
ADV-3 = settings: cited from earlier work
ENTV CVB1 = settings: cited from earlier work
adenovirus = test: Antiviral activity against adenovirus; type: cell-based
SARS-CoV-2 = type: cell-based; settings: FIG. 32
Dengue virus = settings: Cheung et al. 2014; cited from earlier work

CC1(C)CC[C@]2(C(=O)O)CC[C@]3(C)C(=CC[C@@H]4[C@@]5(C)CC[C@H](O)C(C)(C)[C@@H]5CC[C@]43C)[C@@H]2C1 [Oleanolic acid]
anti-viral activity against HCV H strain NS5B (HCV H strain NS5B): some anti-viral activity | anti-viral activity against HIV-1 (HIV-1): some anti-viral activity | anti-viral activity against HEP C (HEP C): some anti-viral activity

C[C@H]1[C@H](C)CC[C@]2(C(=O)O)CC[C@]3(C)C(=CC[C@@H]4[C@@]5(C)CC[C@H](O)C(C)(C)[C@@H]5CC[C@]43C)[C@H]12 [Ursolic acid]
anti-viral activity against ADV-8 (ADV-8): some anti-viral activity | anti-viral activity against HSV-2 (HSV-2): some anti-viral activity | anti-viral activity against ADV-11 (ADV-11): some anti-viral activity | anti-viral activity against ENTV EV71 (ENTV EV71): some anti-viral activity | anti-viral activity against HSV-1 (HSV-1): some anti-viral activity | anti-viral activity against HEP B (HEP B): some anti-viral activity | anti-viral activity against HCV H strain NS5B (HCV H strain NS5B): some anti-viral activity | anti-viral activity against ADV-3 (ADV-3): some anti-viral activity | anti-viral activity against HIV-1 (HIV-1): some anti-viral activity | anti-viral activity against HEP C (HEP C): some anti-viral activity | anti-viral activity against ENTV CVB1 (ENTV CVB1): some anti-viral activity

C[C@H]1O[C@@H](O[C@H]2[C@@H](O)C[C@H](O[C@H]3[C@@H](O)C[C@H](O[C@H]4CC[C@@]5(C)[C@H](CC[C@@H]6[C@@H]5C[C@@H](O)[C@]5(C)[C@@H](C7=CC(=O)OC7)CC[C@]65O)C4)O[C@@H]3C)O[C@@H]2C)C[C@H](O)[C@@H]1O [digoxin, reference compound]
activity against adenovirus (adenovirus): inactive | inhibition of viral replication (SARS-CoV-2): efficacy of digoxin against the virus

CC(=O)O[C@H]1C[C@H](O[C@H]2[C@@H](O)C[C@H](O[C@H]3[C@@H](O)C[C@H](O[C@H]4CC[C@@]5(C)[C@H](CC[C@@H]6[C@@H]5C[C@@H](O)[C@]5(C)[C@@H](C7=CC(=O)OC7)CC[C@]65O)C4)O[C@@H]3C)O[C@@H]2C)O[C@H](C)[C@H]1O[C@@H]1O[C@H](CO)[C@@H](O)[C@H](O)[C@H]1O [lanatoside C]
antiviral activity against Dengue virus (Dengue virus): demonstrates antiviral activity against Dengue virus
